Data as given in the METLIN SMRT retention time set (Domingo-Almenara et al. 2019).

test: gradient 5% acetonitrile 3 min, to 50% in 2 min, to 85% in 15 min, held 3 min, 100 µL/min; details: column: Zorbax Extend-C18 2.1 x 50 mm; eluents: water / acetonitrile, 0.1% formic acid
How it was run: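 Retention time was recorded from adduct peaks, which were picked computationally and each inspected manually. Pure standards ran in mixtures of ~100 molecules on HPLC coupled to a quadrupole time-of-flight mass spectrometer, in positive and negative ionization mode, through a Zorbax Extend-C18 column (2.1 × 50 mm, 1.8 μm) at 100 μL/min. Eluents were water and acetonitrile, each with 0.1% formic acid.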

SMILES | RP-LC retention time [s]
O=C(CC1CCCC1)NCCC1CCN(C(=O)Nc2cc(F)ccc2F)CC1 | 847
Cc1ccc(NC(=O)Cn2nc3n(c2=O)CCCCC3)cc1C | 717
COc1cc(NC(=O)C2CC(=O)N(CCc3c[nH]c4ccc(C)cc34)C2)cc(OC)c1OC (centres undefined) | 753
Cc1ccc(CNCc2ccc3c(c2)n(C)c(=O)n3C)cc1 | 619
COc1ccc(CNC(=O)C2(C)CCN(C(=O)Nc3ccc(C)c(F)c3)CC2)cc1 | 880
CCOC(=O)c1cc(S(=O)(=O)N2CCCC2C(=O)Nc2ccc(C)c(C)c2)cn1C (centres undefined) | 1020
Cc1ccc(NC(=O)CN2C(=O)CCCc3cc(S(=O)(=O)N4CCCC4)ccc32)cc1 | 855
O=C1CC(C(F)(F)F)c2c(c(C(=O)O)cn2-c2cccc(Br)c2)N1 (centres undefined) | 795
CCOc1coc(C(=O)NCCc2ccc(Cl)cc2)cc1=O | 706
O=C(CCC1CCCC1)NCCC1CCN(C(=O)Nc2ccc(F)cc2F)CC1 | 880
CCOc1ccc2c(n1)CCN(C(=O)NC1CCCC1)C2 | 731
Nc1o[nH]c(=O)c1C1CCCCC1 | 680
COc1ccc(CCNC[C@H](O)c2ccc(O)cc2)cc1OC | 656
Cc1cc(C)nc(SCC(=O)Nc2ncc(Cc3ccc(Cl)cc3)s2)n1 | 942
Cc1cc(C)cc(Nc2c(C(=O)N3CCCC(C)C3)cnc3nc(C)ccc23)c1 (centres undefined) | 672
Cc1nc(NC2CCCCC2)sc1C(=O)Nc1ccc(F)cc1F | 855
CCCCS(=O)(=O)c1cc2c(cc1NC(=O)Cc1ccc(C)cc1)n(C)c(=O)n2C | 931
Cc1nnc(C(=O)Nc2cccc(C(=O)NCCc3c[nH]c4ccc(Cl)cc34)c2)s1 | 847
Cc1[nH]c(=O)[nH]c(=O)c1/C=C/C(=O)NC(CO)CC(C)C (centres undefined) | 592
CCN1C(=O)Cc2cc(C(=O)NCc3ccc(Br)cc3)ccc21 | 807
O=C(c1cc(O)c(O)c([N+](=O)[O-])c1)c1ccccc1F | 716
CCN1CCCn2cc(S(=O)(=O)Nc3ccc(C)cc3C)cc2C1=O | 763
Cc1cc(=O)n(CC(=O)Nc2ccccc2)c(N)n1 | 580
O=C(CC1CCN(C(=O)C2CCCCC2)CC1)NCc1ccccn1 | 596
Cc1cc(C(=O)Nc2c3c(nn2C)CCC3)no1 | 611
COC(=O)c1cc(S(=O)(=O)N2CCCC2C(=O)Nc2ccc(F)cc2Cl)cn1C (centres undefined) | 938

SMILES | RP-LC retention time [s]
Fc1ccc(OCCc2noc(C3CCCN3)n2)cc1 (centres undefined) | 631
O=C(CCCc1ccccc1)Nc1ccc2c(c1)CCC(=O)N2 | 724
CCC(=O)N1CCc2ccccc2C1C(=O)NCc1ccc(Br)cc1 (centres undefined) | 887
Cc1nnc(NC(=O)C2CCN(C(=O)NC3CC3)CC2)s1 | 582
O=C(Cn1nc2c(N3CCCCCC3)nccn2c1=O)Nc1ccc(F)c(Cl)c1 | 786
Cc1cc2[nH]c(C(=O)NC(C)c3cccnc3)c(CN3CCCCC3)c2s1 (centres undefined) | 587
Cc1cc(NC(=O)C2CCN(C(=O)C3Sc4ccccc4NC3=O)CC2)ccc1Br (centres undefined) | 901
O=C(/C=C/c1ccc(O)c(O)c1)c1ccc(O[C@@H]2O[C@H](CO)[C@@H](O)[C@H](O)[C@H]2O)c(O)c1O | 641
COC(=O)c1c(C)c(C(=O)C(C)N(CCC(C)C)C(=O)c2ccccc2Cl)c(C)n1C (centres undefined) | 1130
COc1cccc(NC(=O)Cn2nc3cc(C)nc(Nc4cc(C)cc(C)c4)n3c2=O)c1 | 1110
CCOC(=O)c1c(NCCC(C)C)c2cccc(Cl)c2[nH]c1=O | 890
Cc1cc(Cl)ccc1NC(=O)c1cc2n(n1)CCCC2 | 975
COc1ccc2c(C)c(C(=O)Nc3ccc4cn[nH]c4c3)oc2c1 | 794
CCOc1ccc(NC(=O)c2cnc3c(c2)c(=O)n(C)c(=O)n3-c2ccc(OC)cc2)cc1 | 901
CCN1C(=O)C2(CCN(S(=O)(=O)c3c(C)nn(C)c3C)CC2)c2ccccc21 | 841
CC(C)CCNC(=O)c1c2c(cn(-c3ccccc3)c1=O)C(=O)CC(C)(C)C2 | 1030
Cc1nnc2sc(SCc3ccc(C(F)(F)F)cc3)nn2c1=O | 801
O=c1c2nc(-c3ccc(F)cc3)cn2ccn1-c1ccc2c(c1)CCC2 | 945
CCCN1C(=O)c2c(C(=O)NCc3cccc(F)c3)ncn2CC1(C)C(=O)NCCC(C)C (centres undefined) | 843
CC1CCCN(CCCNC(=O)CCCN2C(=O)CCn3nc(-c4cccn4C)cc32)C1 (centres undefined) | 614
CCCCN1CCN(C(=O)c2c(C)sc3ccn(CC(C)C)c(=O)c23)CC1 | 632
O=c1ncn2nc(Sc3ccc(F)cc3F)ccc2c1-c1c(Cl)cccc1Cl | 894
CCc1nnc(-c2ccc(=O)n(CC(=O)NCc3ccc(F)c(Cl)c3)c2)o1 | 713
N#Cc1ccc(NC(=O)c2noc3c2CCCCC3)cc1 | 995
CCOc1cncc(C(=O)N2CCCCC2C)c1 (centres undefined) | 725

Now from value to compound:

RP-LC retention time [s] | SMILES
964 | O=S1(=O)CCN(c2ccccc2CC(c2c[nH]c3ccccc23)c2c[nH]c3ccccc23)CC1
804 | COc1cccc(N2CCN(c3ccnc(SCC(=O)Nc4ccc(F)cc4F)n3)CC2)c1
702 | CC1=C(c2ccccc2)S(=O)(=O)N=C1N1CCC(NC(=O)C2CCCO2)CC1 (centres undefined)
766 | O=C(Cn1nc2ccc(C(=O)NCc3ccccc3)cn2c1=O)NC1CCc2ccccc21 (centres undefined)
702 | CN1CCN(c2ccc(Nc3cc(-c4cccc(-n5ccc6cc(C7CC7)cc(F)c6c5=O)c4CO)cn(C)c3=O)nc2)CC1
668 | COc1ccc(NC(=O)Nc2c(-c3ccc(F)cc3)nc3ccccn23)cc1F
1080 | Cc1ccc(Nc2c(-c3ccccc3O)nc3ccc(Cl)cn23)cc1
895 | CCC(C(=O)NCCc1c[nH]c2ccc(OC)cc12)n1nc(C)c2nn(-c3ccccc3)c(C)c2c1=O (centres undefined)
902 | COc1ccccc1CC(=O)N1CCCC1c1cc(C(C)C)on1 (centres undefined)
592 | COc1ccc(-n2c(CSc3ncccn3)nnc2SCC(=O)NO)cc1
853 | Cc1ccc(NC(=O)Cn2nc3c(Oc4ccccc4C)nccn3c2=O)cc1
838 | COc1cccc(-c2cc3n(n2)C(NCCc2cccs2)CNC3=O)c1 (centres undefined)
615 | CN1CCN(Cc2nn(C)c3c2CN(S(=O)(=O)c2ccccc2Cl)CC3)CC1
1060 | COc1ccc(N2CCN(c3cc(SCC(=O)Nc4cccc(Cl)c4C)ncn3)CC2)cc1
788 | COc1ccc(OC)c(NC(=O)NC2CCN(c3ccccc3)C2=O)c1 (centres undefined)
681 | Cc1c(NC(=O)c2ccccc2-c2ccccc2C(=O)O)c(=O)n(-c2ccccc2)n1C
762 | COc1ccc(Cl)c2c(=O)c3c([nH]c12)CCN(CC(=O)NCc1ccc(Cl)cc1)C3
858 | O=C(NCCc1c[nH]c2ccc(Cl)cc12)C1CCCN(c2nc3cccnc3s2)C1 (centres undefined)
646 | COc1ccccc1-c1noc2ncnc(N3CCN(c4ccccn4)CC3)c12

RP-LC retention time [s] | SMILES
752 | COc1cccc(N2CCN(C(=O)C3CC(=O)N(c4ccc5oc(C)nc5c4)C3)CC2)c1 (centres undefined)
745 | CC(C)n1cnc(S(=O)(=O)N2CCC(C(=O)NCCc3ccccc3)CC2)c1
713 | O=C(NC1CCCc2ccccc21)C1CCN(Cc2noc(-c3ccc(F)cc3)n2)CC1 (centres undefined)
654 | Cc1ccc(CNC(=O)c2ccc(-c3cc(N4CCCC4)ncn3)cc2)o1
1030 | COc1ccc(-c2noc(Cn3ccn4nc(-c5ccccc5)cc4c3=O)n2)cc1
829 | CCOc1ccccc1NC(=O)CC1Sc2ccccc2NC1=O (centres undefined)
668 | CC(C)(C)CCN1CCCC(COc2ccccc2C(=O)N2CCCC2)C1 (centres undefined)
610 | O=C(Nc1ccc(N2CCOCC2)cc1)C1CCN(c2cnc3nccnc3c2)CC1
778 | COc1ccccc1NC(=O)Cn1nc2c(N(C)C3CCCCC3)nccn2c1=O
804 | CCc1cccc(N2C(=O)CN(S(C)(=O)=O)CC2(C)C(=O)NCc2ccccc2)c1 (centres undefined)
802 | COc1ccc(Cl)cc1NC(=O)CSc1ccc2nnc(-c3cccc(F)c3)n2n1
770 | COC(=O)Cn1c(C2CC(=O)N(Cc3ccccc3)C2)nc2ccccc21 (centres undefined)
932 | CCc1ccccc1NC(=O)C1CCN(S(=O)(=O)c2ccc3c(c2)sc(=O)n3CC)CC1
558 | c1cc(CN2CCN(c3cnn4c(C5CC5)nnc4c3)CC2)cs1
1120 | O=C(Cn1cccc1-c1nc(-c2ccc3c(c2)OCO3)no1)N1CCCc2ccccc21
975 | N#Cc1ccc(C(=O)N2CCN(S(=O)(=O)c3cc(-c4noc(C5CCC5)n4)cs3)CC2)cc1
586 | CN1CCCN(C(=O)c2ccc(-c3ccsc3)nc2)CC1
1080 | CCCS(=O)(=O)N1CCC(F)(c2nc(-c3ccccc3)no2)CC1
742 | CCc1nc2cccnc2n1CCN1CCN(C(=O)Nc2ccc(C)c(Cl)c2)CC1
